Consider 13 molecules from ChEMBL document CHEMBL1201862, “PubChem BioAssay data set” (2004).

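Interpolation was linear, between the two tested concentrations surrounding the appropriate level; five concentrations were tested over 48 hours in 96-well plates. GI50 is the concentration that inhibits growth by half.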 Activity calls are given as the source filed them. Rule as the data show it: active = GI50 up to about 1.1 µM and inactive = higher.

Among the test systems are CCRF-CEM; KM12; HL-60; ACHN; HCT-15; SK-MEL-2; Malme-3M; SF-539; PC-3; HOP-92; 786-0; HT-29; SW-620; Hs-578T; T47D; EKVX; HCC 2998; NCI-H460; UACC-62.
Assay in all cases: growth of human tumour cells (NCI), 48 h

As for `CCCCCCCCCC(O)CC(=O)c1c(O)cccc1O` (centres undefined), the GI50 is 46.3 µM (inactive) in the test on CCRF-CEM; 19.3 µM (inactive) in the test on KM12; 22.2 µM (inactive) with HL-60; 24.1 µM (inactive) with ACHN; 18.2 µM in the test on HCT-15; 18.4 µM (inactive) with SK-MEL-2. For the same molecule, the GI50 with Malme-3M was 16 µM (inactive); in the test on SF-539, 20.3 µM (inactive); with PC-3 it was 18.7 µM (inactive); with HOP-92, 25.4 µM (inactive); in the test on 786-0, 19.1 µM (inactive); with HT-29, 19.5 µM (inactive). For the same molecule, the GI50 was 39.5 µM (inactive) in the test on SW-620; 18.6 µM (inactive) with Hs-578T; 25.2 µM (inactive) in the test on T47D; 21.9 µM (inactive) with EKVX; 12.4 µM (inactive) with HCC 2998.

With `COc1cc(OC)c(OC)cc1/C=C1\C=Cc2ccccc21`, the GI50 in the test on CCRF-CEM is 16.3 µM (inactive); in the test on KM12 it was 10.3 µM (inactive); with HL-60 it was 5.82 µM (inactive); with ACHN, 27.1 µM (inactive); in the test on HCT-15 it was 12.4 µM; with SK-MEL-2, > 10 µM (inactive). For the same molecule, the GI50 with Malme-3M is 23.1 µM (inactive); in the test on NCI-H460, 10.3 µM (inactive); in the test on SF-539, 15.2 µM (inactive); in the test on PC-3, 5.52 µM (inactive); with 786-0, 28.1 µM (inactive); with HT-29, 11.7 µM (inactive). Moreover, the GI50 is 11.1 µM (inactive) in the test with SW-620; 22.9 µM (inactive) in the test with Hs-578T; 7.89 µM (inactive) in the test with T47D; 19.2 µM (inactive) in the test on EKVX; 13.5 µM (inactive) with HCC 2998.

For `CC(C)N(C(=O)C12C3C4C5C3C1(C(=O)N(C(C)C)C(C)C)C5(C#N)C42)C(C)C` (centres undefined), the GI50 in the test with CCRF-CEM was 22 µM (inactive); with KM12, > 100 µM (inactive); in the test with UACC-62 it was > 100 µM (inactive); with HL-60, 21.1 µM (inactive); with ACHN it was > 100 µM (inactive); with HCT-15, 67.5 µM. Moreover, the GI50 in the test with SK-MEL-2 is > 100 µM (inactive); with Malme-3M, > 100 µM (inactive); in the test with NCI-H460, 61 µM (inactive); in the test on SF-539, > 100 µM (inactive); with HOP-92, > 100 µM (inactive); in the test with 786-0, > 100 µM (inactive). Further, the GI50 in the test on HT-29 was > 100 µM (inactive); with SW-620, 17.9 µM (inactive); in the test with EKVX it was > 100 µM (inactive); in the test with HCC 2998, > 100 µM (inactive).

Turning to `C=C1CCC2C(C)(CO)C(O)CCC2(C)C1CC(O)C1=CCOC1=O` (centres undefined), the GI50 is 22.9 µM (inactive) in the test with CCRF-CEM; 36.1 µM (inactive) in the test with KM12; > 100 µM (inactive) in the test with UACC-62; 26.9 µM (inactive) in the test with HL-60; 60.7 µM (inactive) in the test on ACHN; 27.4 µM in the test on HCT-15. In addition, the GI50 is 53.5 µM (inactive) in the test on SK-MEL-2; > 100 µM (inactive) in the test with Malme-3M; 49.9 µM (inactive) with NCI-H460; 24.3 µM (inactive) in the test on SF-539; > 100 µM (inactive) in the test on HOP-92; 23.1 µM (inactive) in the test on 786-0. For the same molecule, the GI50 with HT-29 was 35.7 µM (inactive); in the test on SW-620, 19.8 µM (inactive); in the test on EKVX, 96.2 µM (inactive); with HCC 2998 it was 17.7 µM (inactive).

In the case of `COc1ccc([Se][Se]c2ccc(OC)cc2OC)c(OC)c1`, the GI50 in the test on CCRF-CEM is 2.08 µM (inactive); in the test with KM12, 3.52 µM (inactive); in the test on UACC-62 it was 1.93 µM (inactive); with HL-60, 2.43 µM (inactive); in the test on ACHN it was 2.86 µM (inactive); in the test with HCT-15 it was 1.84 µM. Moreover, the GI50 is 4.08 µM (inactive) with SK-MEL-2; 4.54 µM (inactive) with Malme-3M; 4.29 µM (inactive) in the test with NCI-H460; 1.75 µM (inactive) with SF-539; 2.35 µM (inactive) in the test with HOP-92; 2.81 µM (inactive) in the test with 786-0. For the same molecule, the GI50 in the test on HT-29 was 3.14 µM (inactive); with SW-620, 2.59 µM (inactive); with HCC 2998, 6.07 µM (inactive).

On to `CCCC/C=C/C1Cc2ccccc2CN1S(=O)(=O)c1ccc(C)cc1` (centres undefined), for which the GI50 is 4.9 µM (inactive) with CCRF-CEM; 9.91 µM (inactive) with KM12; 12.7 µM (inactive) with UACC-62; 1.84 µM (inactive) in the test with HL-60; 5.24 µM (inactive) in the test with ACHN; 8.39 µM in the test with HCT-15. In addition, the GI50 in the test with SK-MEL-2 was 14.3 µM (inactive); with Malme-3M it was 6.67 µM (inactive); in the test on NCI-H460, 12.7 µM (inactive); in the test on SF-539, 15.7 µM (inactive); in the test on HOP-92, 2.15 µM (inactive); in the test on 786-0, 12.3 µM (inactive). The GI50 in the test with HT-29 is 7.8 µM (inactive); in the test with SW-620, 11.2 µM (inactive); in the test on EKVX, 13.7 µM (inactive); in the test on HCC 2998, 12.1 µM (inactive).

For `O=C(OCCOCBr)c1ccccc1`, the GI50 in the test with CCRF-CEM was > 100 µM (inactive); in the test on KM12, > 100 µM (inactive); in the test with UACC-62, > 100 µM (inactive); in the test with HL-60, > 100 µM (inactive); in the test on ACHN it was > 100 µM (inactive); in the test on HCT-15 it was above 100 µM. Moreover, the GI50 in the test on SK-MEL-2, in the test on Malme-3M, with NCI-H460, in the test with SF-539, in the test with HOP-92 and with 786-0 was > 100 µM (inactive) throughout. In addition, the GI50 in the test on HT-29, with SW-620, in the test on EKVX and in the test with HCC 2998 was > 100 µM (inactive) throughout.

Regarding `O=C(CCC(=O)Nc1ccc(Cl)c(Cl)c1)Cc1nc2ccccc2o1`, the GI50 was > 100 µM (inactive) with CCRF-CEM; > 100 µM (inactive) with KM12; > 100 µM (inactive) with UACC-62; > 100 µM (inactive) in the test with HL-60; > 100 µM (inactive) with ACHN; above 100 µM in the test on HCT-15. Also, the GI50 with SK-MEL-2, in the test with Malme-3M, with NCI-H460, in the test with SF-539, with HOP-92 and in the test with 786-0 was > 100 µM (inactive) each time. Further, the GI50 is > 100 µM (inactive) with HT-29, > 100 µM (inactive) in the test on SW-620, 67.3 µM (inactive) with EKVX and > 100 µM (inactive) with HCC 2998.

`CNC1=C(C)C(=O)C(C)=C(C(C)(C)CC(=O)n2cc(F)c(=O)[nH]c2=O)C1=O`: the GI50 with CCRF-CEM is > 65.3 µM (inactive); in the test on KM12, 14.5 µM (inactive); in the test on UACC-62, 45.4 µM (inactive); in the test on HL-60, 17.8 µM (inactive); in the test with ACHN it was 38.5 µM (inactive); in the test with HCT-15, 19.9 µM. Besides, the GI50 in the test with SK-MEL-2 is > 63.5 µM (inactive); in the test with Malme-3M, > 43.1 µM (inactive); with NCI-H460, 2.99 µM (inactive); with SF-539, 3.97 µM (inactive); in the test with HOP-92 it was > 100 µM (inactive); in the test with 786-0, 22.6 µM (inactive). The GI50 is 12.5 µM (inactive) in the test on HT-29, 39.9 µM (inactive) with SW-620, 16.1 µM (inactive) in the test on EKVX and 1.16 µM (inactive) in the test on HCC 2998.

As to `COC(=O)/C=C/C(=O)C1C(C(=O)OC)C2(C(=O)OC)CCC1(C(=O)OC)N2` (centres undefined), the GI50 with KM12 was > 100 µM (inactive); in the test with UACC-62 it was > 100 µM (inactive); in the test on HL-60 it was > 100 µM (inactive); with HCT-15 it was above 100 µM; in the test on SK-MEL-2 it was > 100 µM (inactive); with Malme-3M, > 100 µM (inactive). Moreover, the GI50 was > 100 µM (inactive) in the test with SF-539; < 0.01 µM (active) with HOP-92; > 100 µM (inactive) with 786-0; > 100 µM (inactive) with HT-29; > 100 µM (inactive) with EKVX; > 100 µM (inactive) with HCC 2998.

Regarding `C=CC[C@@]1(C#N)C[C@H](C[C@]2(C#N)C[C@H](CCl)OC(C)(C)O2)OC(C)(C)O1`, the GI50 was > 100 µM (inactive) in the test on CCRF-CEM; > 100 µM (inactive) with KM12; > 100 µM (inactive) in the test on UACC-62; 36 µM (inactive) in the test on HL-60; > 100 µM (inactive) with ACHN; above 100 µM in the test with HCT-15. The GI50 in the test on SK-MEL-2 is > 100 µM (inactive); with Malme-3M, > 100 µM (inactive); with NCI-H460, > 100 µM (inactive); in the test with SF-539 it was > 100 µM (inactive); in the test on HOP-92 it was 51.9 µM (inactive); with 786-0, > 100 µM (inactive). For the same molecule, the GI50 in the test with HT-29, in the test with SW-620, in the test with EKVX and in the test on HCC 2998 was > 100 µM (inactive) in each case.

Regarding `COC(=O)/C([Se]c1c(C)cc(C)cc1C)=C(\[Se]c1c(C)cc(C)cc1C)C(=O)OC`, the GI50 in the test on CCRF-CEM was > 100 µM (inactive); in the test on KM12 it was > 100 µM (inactive); with UACC-62, > 100 µM (inactive); with HL-60 it was > 100 µM (inactive); in the test on ACHN it was > 100 µM (inactive); in the test on HCT-15, above 100 µM. For the same molecule, the GI50 in the test on SK-MEL-2 was > 100 µM (inactive); with Malme-3M, > 100 µM (inactive); in the test on NCI-H460 it was > 100 µM (inactive); in the test with SF-539, > 10 µM (inactive); with HOP-92 it was > 100 µM (inactive); in the test with 786-0, > 100 µM (inactive). The GI50 in the test on HT-29, in the test on SW-620, in the test on EKVX and in the test on HCC 2998 was > 100 µM (inactive) in each case.

As to `[O-][N+]1=C(c2ccccc2)COc2ccccc21`, the GI50 in the test on CCRF-CEM was 85.1 µM (inactive); in the test with KM12, > 100 µM (inactive); in the test with UACC-62 it was > 100 µM (inactive); in the test on HL-60, > 100 µM (inactive); in the test on ACHN it was > 100 µM (inactive); with HCT-15, above 100 µM. For the same molecule, the GI50 in the test with SK-MEL-2, with Malme-3M, with NCI-H460, in the test on SF-539, with HOP-92 and with 786-0 was > 100 µM (inactive) throughout. Besides, the GI50 with HT-29, in the test with SW-620 and in the test with HCC 2998 was > 100 µM (inactive) throughout.
